Experimental data from patent publication US9181193B2, “Indenoquinolone compound, preparation method and use thereof” (Second Military Medical University, PLA, priority 2010, dated 2015).

Tests used:
Assay type in all cases: cell-based
[1] = test system: A549 (human lung cancer cells); assay: MTT in vitro anti-tumor activity test, A549; settings: MTT assay, A549 cells; for A549 IC50: 72 h incubation; for A549 100 μg/mL IC %: inhibition at 100 μg/mL, 72 h
[2] = test system: Colo205 (human colon cancer cells); assay: MTT in vitro anti-tumor activity test, Colo205; settings: MTT assay, Colo205 cells; for Colo205 IC50: 72 h incubation; for Colo205 100 μg/mL IC %: inhibition at 100 μg/mL, 72 h
[3] = test system: MDA-MB-435 (human breast cancer cells); assay: MTT in vitro anti-tumor activity test, MDA-MB-435; settings: MTT assay, MDA-MB-435 cells; for MDA-MB-435 IC50: 72 h incubation; for MDA-MB-435 100 μg/mL IC %: inhibition at 100 μg/mL, 72 h
[4] = test system: HepG2 (human hepatoma cells); assay: MTT in vitro anti-tumor activity test, HepG2; settings: MTT assay, HepG2 cells; for HepG2 IC50: 72 h incubation; for HepG2 100 μg/mL IC %: inhibition at 100 μg/mL, 72 h

Row | A549 IC50 [1] | Colo205 IC50 [2] | MDA-MB-435 IC50 [3] | HepG2 IC50 [4] | SMILES | A549 100 μg/mL IC % [1] | Colo205 100 μg/mL IC % [2] | MDA-MB-435 100 μg/mL IC % [3] | HepG2 100 μg/mL IC % [4]
1 | 13.16 µg/mL | 18.77 µg/mL | 9.37 µg/mL | 22.97 µg/mL | O=C1c2cc(Cl)ccc2-c2c1c1ccccc1n(CCn1ccnc1)c2=O [Compound 38] | 100% | 95.16% | 100% | 88.62%
2 | 3.25 µg/mL | 3.16 µg/mL | 1.52 µg/mL | 11.51 µg/mL | CN(C)CCCn1c(=O)c2c(c3ccccc31)C(=O)c1cc(Cl)ccc1-2 [Compound 40] | 86.70% | 100% | 100% | 100%
3 | >100 µg/mL | 34.21 µg/mL | 83.60 µg/mL | >100 µg/mL | COc1ccc2c(c1)c1c(c(=O)n2CCn2ccnc2)-c2ccc(Br)cc2C1=O [Compound 43] | 4.26% | 87.42% | 53.07% | 9.73%
4 | 1.42 µg/mL | 0.346 µg/mL | 0.014 µg/mL | 1.93 µg/mL | COc1ccc2c(c1)C(=O)c1c-2c(=O)n(CCN2CCCC2)c2cc(OC)c(OC)cc12 [Compound 44] | 94.74% | 92.66% | 78.20% | 84.59%
5 | 37.85 µg/mL | 16.76 µg/mL | 7.86 µg/mL | 6.27 µg/mL | COc1ccc2c(c1)C(=O)c1c-2c(=O)n(CCN2CCOCC2)c2cc(OC)c(OC)cc12 [Compound 45] | 62.84% | 66.89% | 72.95% | 84.31%
6 | 10.60 µg/mL | 1.66 µg/mL | 5.30 µg/mL | 8.33 µg/mL | COc1cc2c3c(c(=O)n(CCN(C)C)c2cc1OC)-c1ccc(Cl)cc1C3=O [Compound 47] | 87.20% | 88.74% | 100% | 64.50%
7 | 23.76 µg/mL | 11.75 µg/mL | 12.36 µg/mL | 60.46 µg/mL | COc1cc2c3c(c(=O)n(CCn4ccnc4)c2cc1OC)-c1ccc(Cl)cc1C3=O [Compound 48] | 79.61% | 89.59% | 100% | 62.67%
8 | >100 µg/mL | 69.03 µg/mL | >100 µg/mL | 21.05 µg/mL | COc1cc2c3c(c(=O)n(CCN4CCOCC4)c2cc1OC)-c1ccc(Cl)cc1C3=O [Compound 49] | 28.48% | 50.06% | 48.01% | 59.34%
9 | 3.59 µg/mL | 15.89 µg/mL | 1.12 µg/mL | 3.71 µg/mL | COc1cc2c3c(c(=O)n(CCCN(C)C)c2cc1OC)-c1ccc(Cl)cc1C3=O [Compound 50] | 85.91% | 76.93% | 89.80% | 36.98%

The next lines start with the compound.

Row | SMILES | A549 IC50 [1] | Colo205 IC50 [2] | MDA-MB-435 IC50 [3] | HepG2 IC50 [4] | A549 100 μg/mL IC % [1] | Colo205 100 μg/mL IC % [2] | MDA-MB-435 100 μg/mL IC % [3] | HepG2 100 μg/mL IC % [4]
10 | COc1ccc2c(c1)C(=O)c1c-2c(=O)n(CCN2CCCC2)c2ccccc12 [Compound 32] | 8.58 µg/mL | 7.45 µg/mL | 10.73 µg/mL | 6.92 µg/mL | 92.32% | 92.85% | 96.48% | 70.03%
11 | COc1ccc2c(c1)C(=O)c1c-2c(=O)n(CCN2CCOCC2)c2ccccc12 [Compound 33] | >100 µg/mL | >100 µg/mL | >100 µg/mL | >100 µg/mL | 40.55% | 29.31% | 27.19% | 4.57%
12 | COc1ccc2c(c1)C(=O)c1c-2c(=O)n(CCCN(C)C)c2ccccc12 [Compound 34] | 6.58 µg/mL | 6.82 µg/mL | 19.78 µg/mL | ≈100 μg/mL | 100% | 99.54% | 100% | 49.68%
13 | CN(C)CCn1c(=O)c2c(c3ccccc31)C(=O)c1cc(Cl)ccc1-2 [Compound 35] | 19.04 µg/mL | 3.89 µg/mL | 3.88 µg/mL | 20.09 µg/mL | 72.15% | 100% | 100% | 100%
14 | CCN(CC)CCn1c(=O)c2c(c3ccccc31)C(=O)c1cc(Cl)ccc1-2 [Compound 36] | 78.22 µg/mL | 28.58 µg/mL | 28.86 µg/mL | 61.69 µg/mL | 61.01% | 79.84% | 83.69% | 59.74%
15 | O=C1c2cc(Cl)ccc2-c2c1c1ccccc1n(CCN1CCCC1)c2=O [Compound 37] | 58.58 µg/mL | 36.76 µg/mL | 41.01 µg/mL | >100 µg/mL | 61.64% | 69.37% | 70.26% | 24.95%
16 | O=C1c2cc(Cl)ccc2-c2c1c1ccccc1n(CCN1CCCCC1)c2=O [Compound 39] | >100 µg/mL | >100 µg/mL | >100 µg/mL | >100 µg/mL | 47.81% | 13.12% | 14.88% | 22.39%
17 | COc1ccc2c(c1)C(=O)c1c-2c(=O)n(CCN(C)C)c2ccc(OC)cc12 [Compound 41] | ≈100 μg/mL | 0.632 µg/mL | 0.703 µg/mL | 3.36 µg/mL | 49.27% | 83.62% | 77.77% | 85.01%
18 | COc1ccc2c(c1)-c1c(c3cc(OC)ccc3n(CCN(C)C)c1=O)C2=O [Compound 42] | 8.03 µg/mL | 1.27 µg/mL | 3.12 µg/mL | 3.77 µg/mL | 87.75% | 100% | 100% | 100%
